Biological target: T1, NPC1 (Cricetulus griseus, UniProt Q9JLG3)
T1 construct: CHO-7 cells in the medium are deprived of cholesterol to induce the LDL receptors biosynthesis; endogenous in cells; host or cells: CHO-7 cells
T1 sequence (Q9JLG3 23-1277): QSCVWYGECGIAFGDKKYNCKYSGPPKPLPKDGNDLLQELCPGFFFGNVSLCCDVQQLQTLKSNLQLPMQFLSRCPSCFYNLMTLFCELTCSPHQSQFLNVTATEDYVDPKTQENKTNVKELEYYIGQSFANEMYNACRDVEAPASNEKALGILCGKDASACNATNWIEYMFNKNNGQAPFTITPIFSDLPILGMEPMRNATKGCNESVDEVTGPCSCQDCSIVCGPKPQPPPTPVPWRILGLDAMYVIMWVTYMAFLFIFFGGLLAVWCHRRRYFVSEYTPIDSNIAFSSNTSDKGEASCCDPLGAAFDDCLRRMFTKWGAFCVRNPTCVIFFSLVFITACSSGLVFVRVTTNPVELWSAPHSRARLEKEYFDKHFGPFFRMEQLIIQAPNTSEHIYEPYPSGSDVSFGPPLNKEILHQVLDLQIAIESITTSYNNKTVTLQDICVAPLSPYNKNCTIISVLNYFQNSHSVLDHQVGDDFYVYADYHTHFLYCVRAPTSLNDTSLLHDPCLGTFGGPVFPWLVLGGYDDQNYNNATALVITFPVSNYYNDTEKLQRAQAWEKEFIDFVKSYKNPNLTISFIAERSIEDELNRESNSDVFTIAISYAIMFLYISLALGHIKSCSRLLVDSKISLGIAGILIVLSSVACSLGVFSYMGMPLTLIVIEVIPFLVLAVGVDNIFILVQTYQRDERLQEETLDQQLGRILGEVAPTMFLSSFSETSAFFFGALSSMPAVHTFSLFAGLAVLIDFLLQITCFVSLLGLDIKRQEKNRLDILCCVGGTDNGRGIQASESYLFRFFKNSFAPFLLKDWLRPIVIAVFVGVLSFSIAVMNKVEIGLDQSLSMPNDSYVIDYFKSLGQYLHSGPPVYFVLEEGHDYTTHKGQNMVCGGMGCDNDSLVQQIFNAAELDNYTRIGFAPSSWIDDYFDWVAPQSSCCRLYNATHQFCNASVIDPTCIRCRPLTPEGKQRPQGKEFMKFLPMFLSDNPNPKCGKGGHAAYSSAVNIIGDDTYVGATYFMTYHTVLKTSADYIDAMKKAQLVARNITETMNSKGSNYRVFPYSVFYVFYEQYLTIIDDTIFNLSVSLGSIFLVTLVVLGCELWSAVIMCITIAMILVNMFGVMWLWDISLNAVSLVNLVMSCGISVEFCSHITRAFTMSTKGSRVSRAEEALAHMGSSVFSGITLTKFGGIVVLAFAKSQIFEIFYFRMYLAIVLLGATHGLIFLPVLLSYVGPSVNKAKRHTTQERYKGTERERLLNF
Assay: Cholesterol re-esterification (ACAT) assay measuring NPC1-mediated export of cholesterol from lysosomes in CHO-7 cells
Assay type: cell-based
Settings: for cholesteryl [14C] oleate formed, Repeat 1 / cholesteryl [14C] oleate formed, Repeat 2: Fig. 2 source data; for cholesteryl [14C] oleate formed, Repeat 3 / cholesteryl [14C] oleate formed, Repeat 4: Supplementary Fig. 3 source data
Summary of the method: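 CHO-7 cells were sterol-deprived (5% LPDS, 50 µM compactin, 50 µM mevalonate), then given compounds with 10% FCS lipoproteins for 4 h at 37 °C and pulse-labeled 2 h with 0.1 mM [14C]oleate. Lipids were extracted, separated by TLC and cholesteryl [14C]oleate quantified by scintillation counting.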

SMILES: CC(=O)N1CCN(c2ccc(OCC3COC(Cn4ccnc4)(c4ccc(Cl)cc4Cl)O3)cc2)CC1 (stereo not shown) [Ketoconazole, ketoconazole]
- cholesteryl [14C] oleate formed, Repeat 1 (0.06 uM compound): 5.105 nanomoles formed per hour per milligram cell protein
- cholesteryl [14C] oleate formed, Repeat 2 (0.06 uM compound): 4.499 nanomoles formed per hour per milligram cell protein
- cholesteryl [14C] oleate formed, Repeat 1 (0.1 uM compound): 5.133 nanomoles formed per hour per milligram cell protein
- cholesteryl [14C] oleate formed, Repeat 2 (0.1 uM compound): 5.266 nanomoles formed per hour per milligram cell protein
- cholesteryl [14C] oleate formed, Repeat 3 (0.1 uM compound): 5.665 nanomoles formed per hour per milligram cell protein
- cholesteryl [14C] oleate formed, Repeat 4 (0.1 uM compound): 5.29 nanomoles formed per hour per milligram cell protein
- cholesteryl [14C] oleate formed, Repeat 1 (0.3 uM compound): 4.872 nanomoles formed per hour per milligram cell protein
- cholesteryl [14C] oleate formed, Repeat 2 (0.3 uM compound): 4.637 nanomoles formed per hour per milligram cell protein
- cholesteryl [14C] oleate formed, Repeat 3 (0.3 uM compound): 4.5308 nanomoles formed per hour per milligram cell protein
- cholesteryl [14C] oleate formed, Repeat 4 (0.3 uM compound): 5.341 nanomoles formed per hour per milligram cell protein
- cholesteryl [14C] oleate formed, Repeat 1 (1 uM compound): 4.011 nanomoles formed per hour per milligram cell protein
- cholesteryl [14C] oleate formed, Repeat 2 (1 uM compound): 4.3222 nanomoles formed per hour per milligram cell protein
- cholesteryl [14C] oleate formed, Repeat 3 (1 uM compound): 3.625 nanomoles formed per hour per milligram cell protein
- cholesteryl [14C] oleate formed, Repeat 4 (1 uM compound): 4.546 nanomoles formed per hour per milligram cell protein
- IC50 (IC50 (concentration at which each compound inhibited cholesterol esterification by 50%), 10% FCS, 4 h then 2 h [14C] oleate pulse): > 1 µM
- inhibition of NPC1-mediated cholesterol transport (result in words): did not inhibit
